Measured values from PMC10251479, “PROTAC-Induced Glycogen Synthase Kinase 3β Degradation as a Potential Therapeutic Strategy for Alzheimer’s Disease” (ACS Chemical Neuroscience, 2023).

What was measured:
GSK-3β protein = GSK-3β protein (Homo sapiens, UniProt P49841); test: GSK-3β inhibition in vitro assay (Kinase-Glo luminescent); type: biochemical; design: purchased Millipore (Millipore Iberica S.A.U.); conditions: ATP 1 μM, GSM substrate 25 μM, 30 min at 37 °C; mean of at least two determinations in duplicate; read-out: IC50 ± SEM, GSK-3β activity
Chain of GSK-3β protein (P49841 whole entry): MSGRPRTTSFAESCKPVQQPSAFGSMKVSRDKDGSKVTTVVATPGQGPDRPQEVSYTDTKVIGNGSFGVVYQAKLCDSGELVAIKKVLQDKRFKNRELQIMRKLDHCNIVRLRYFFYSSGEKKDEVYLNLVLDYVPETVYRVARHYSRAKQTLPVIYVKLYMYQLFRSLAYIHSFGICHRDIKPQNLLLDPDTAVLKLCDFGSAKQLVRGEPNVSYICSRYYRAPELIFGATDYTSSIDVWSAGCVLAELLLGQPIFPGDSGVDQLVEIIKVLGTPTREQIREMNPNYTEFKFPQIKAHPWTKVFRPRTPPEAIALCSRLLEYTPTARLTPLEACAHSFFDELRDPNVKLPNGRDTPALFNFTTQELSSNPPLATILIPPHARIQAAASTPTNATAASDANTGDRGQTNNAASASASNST
Description: N-(2-(2-(2-((2-(2,6-dioxopiperidin-3-yl)-1,3-dioxoisoindolin-4-yl)amino)ethoxy)ethoxy)ethyl)- 4-((2-(naphthalen-1-yl)-3,5-dioxo-1,2,4-thiadiazolidin-4-yl)methyl)benzamide (4). Synthesized […]
GSK-3β inhibition in vitro assay. Human recombinant GSK-3β, prephosphorylated polypeptide substrate and white 96-well plates were purchased from Millipore (Millipore Iberica S.A.U.). Kinase-Glo Luminescent Kinase Assay was obtained from Promega (Promega Biotech Iberica, SL).
Adenosinetriphosphate (ATP) and all other reagents were from Sigma-Aldrich. Assay buffer contained 50 mM 4-(2-hydroxyethyl)-1- piperazineethanesulfonic acid (HEPES) (pH 7.5), 1 mM ethylenediaminetetraacetic acid (EDTA), 1 mM ethylene glycol tetraacetic acid (EGTA), and 15 mM magnesium acetate. The in solution experiments for GSK-3β inhibition analysis were performed by following the method developed by Baki et al.[1] In a typical assay, 10 μL of test compound (dissolved […]
in DMSO at 1 mM concentration and diluted in advance in assay buffer to the desired concentration) and 10 μL (20 ng) of enzyme were added to each well in presence of 20 μL of assay buffer containing […]
After a 30 min incubation time at 37 °C, the enzymatic reaction was stopped by adding 40 μL of Kinase-Glo reagent. Glow-type luminescence was recorded after 10 min using a Victorx3 (PerkinElmer Waltham, MA, USA) plate […]
inhibitory activities were calculated based on maximal kinase (average positive) and luciferase activities (average negative) measured in the absence of inhibitor and in the presence of reference […]
μM), respectively. The linear regression parameters were determined and the IC 50 extrapolated by GraphPad software (version 5.0; GraphPad Software, La Jolla, CA, USA).

SH-SY5Y cells = test: Neuroprotective effects against CuSO4 in SH-SY5Y cells (MTT); type: cell-based, human; conditions: 24 h, CuSO4 150 μM
Procedure: SH-SY5Y cells were seeded in a 96-well plate at 2 × 10^4 cells/well, incubated for 24 h and then […]
presence of CuSO4 (150 µM) at 37 °C in 5 % CO2. Cells were also treated with compound 1 (1 µM) for 24 h in the presence of lactacystin (5 µM). At the end of the treatment, the cell viability, in terms of mitochondrial metabolic function, was evaluated by the reduction of 3-(4,5-dimethyl-2-thiazolyl)- 2,5-diphenyl-2H-tetrazolium bromide (MTT) to its insoluble formazan. Briefly, the treatment was replaced with MTT in HBSS [0.5 mg/mL] for 2 h at 37°C in 5% CO2. After washing with HBSS, formazan crystals were dissolved in isopropanol. The amount of formazan was measured (570 nm, reference filter 690 nm) using a multilabel plate reader (VICTOR™ X3, PerkinElmer, Waltham, MA, USA).[10] Data are reported as mean ± SEM of three independent experiments. The neurotoxicity was expressed as a percentage of control cells and calculated by the formula: 100 – ((absorbance of treated

IC50 (GSK-3β protein): 833 ± 62 nM
Compound: O=C(Cn1cc(C2=C(c3ccc(Cl)cc3Cl)C(=O)NC2=O)c2ccccc21)NCCCOCCCCOCCCNc1cccc2c1C(=O)N(C1CCC(=O)NC1=O)C2=O (stereo not drawn) [Compound 1]
neurotoxicity induced by CuSO4 (SH-SY5Y cells; 1 μM, MTT): significantly counteracted the neurotoxicity induced by CuSO4
neuroprotective effect against CuSO4 in the presence of lactacystin (SH-SY5Y cells; lactacystin 5 μM): abolished by lactacystin
